Test results from the NIST ThermoML archive (doi:10.1016/j.jct.2011.09.008).
Numbers after ± are expanded uncertainties.

Tests used:
[1] = 101 kPa, Liquid, Sing-around technique in a fixed-path interferometer
[2] = xn = mol fraction of the nth substance listed; conditions: 283.15 K; 101 kPa; Liquid; Sing-around technique in a fixed-path interferometer; x2 = 0

Row | Structure (SMILES) | speed of sound ([1]; 283.15 K) | speed of sound ([1]; 288.15 K) | speed of sound ([1]; 293.15 K) | speed of sound ([1]; 298.15 K) | speed of sound ([1]; 303.15 K) | speed of sound [2]
1 | CCCOCC(C)O (stereo unspecified) [1-propoxy-2-propanol] | 1301.9 ± 1.5 m/s | 1283.2 ± 1.5 m/s | 1264.5 ± 1.5 m/s | 1245.8 ± 1.5 m/s | 1227.3 ± 1.5 m/s | 
2 | O [water] + CCCOCC(C)O |  |  |  |  |  | 1447.3 ± 1.2 m/s
